Marks after values point to notes of the source that are not given here.
Experiments:
MCa mammary carcinoma = test: Pre-surgical treatment: prevention of lung metastases formation in mice with MCa mammary carcinoma; format: in vivo; settings: for Lung metastases Number % T/C / Lung metastases weight % T/C: Treated/Control; for Lung metastases Number mean / Lung metastases weight (mg) mean: evaluated day 29; for Body weight % var: variation day 11 to day 16 vs untreated controls; for Selectivity of action on lung metastases versus primary tumour: MCa mammary carcinoma model of the CBA mouse; for Number of lung metastases (in words) / Weight of lung metastases (in words): at two dose levels, pre-surgical treatment
Procedure: In vivo tests of the activity of the compounds according to the present invention in mice affected from MCa mammary carcinoma: prevention activity in the formation of lung metastases.
Five groups of CBA kin female mice weighing 23±3 g were inoculated with […] viable cells (as determined by the Trypan blue exclusion) of MCa mammary carcinoma in 0.05 ml Dulbecco's pH 7.4 buffered calcium and magnesium-free solution (PBS), by intramuscular injection with a sterile insulin syringe. The tumour cells were derived from donors of the same strain, injected with the same tumour cells, following the same procedures 2 weeks before. The suspension of tumour cells was prepared in PBS by mechanically mincing the tumour mass obtained from donor mice, and further removing tissue debris and cells by, respectively, filtration through a double layer of sterile gauze and centrifugation at 250× g for 10 minutes. Kin animals were obtained from a colony from Chester Beatthy from London (UK) which were grown in the University of Trieste animal house accordingly to the procedures accepted for the rearing of kin animals. The MCa mammary carcinoma tumour cell-line derived from a stock, stored in liquid nitrogen, of tumour cells obtained originally from Rudjer Boskovic Institute of Zagreb (HR).
From day 11 to day 16, after tumour cells implantation, five mice groups were treated intraperitoneally with a sterile insulin syringe, respectively with: • Group 1 Control (10 animals): 10 ml/kg of body weight/day of sterile and pyrogen-free physiological solution; • Group 2 (two subgroups a,b of five animals each): 7.5 (a), 15 (b) mg/kg of body weight/day of the compound prepared as described in Example 4 in sterile and pyrogen-free physiological solution; • Group 3 (2 subgroups c,d of five animals each): 15 (c), 30 (d) mg/kg of body weight/day of the compound prepared as described in Example 7 in sterile and pyrogen-free physiological solution; • Group 4 (2 subgroups e,f of 5 animals each): 25 (e), 50 (f) mg/kg of body weight/day of the compound prepared as described in Example 8 in sterile and pyrogen-free physiological solution; • Group 5 (2 subgroups g,h of 5 animals each): 12.5 (g), 25 (h) mg/kg of body weight/day of the compound prepared as described in Example 10 in sterile and pyrogen-free physiological solution.
The administered dosages were either approximated to LD0.1, or to half of it or to a quarter of it, as calculated separately in animals of the same strain and gender and with the same body weight, for an intraperitoneal treatment lasting 6 consecutive days, according to the method of Lichtfield and Wilcoxon, and with an observation time of 10 days since the last dose.
On day 17 since tumour cells implantation, the primary tumour was surgically removed, after general anesthesia of the animals by intraperitoneal injection of 125 mg/kg of Ketamine.
On day 29 since tumour cells implantation, the mice were sacrificed by cervical dislocation for the evaluation of lung metastases. The lungs were abducted from the animals immediately after sacrifice, divided in single lobes which then examined immediately with a low-magnification microscope equipped with a graduated ocular-grid for the measurement of the size of the metastases in which the a and b orthogonal axes (a≦b) were identified. Metastases were classified by size and the metastatic tumour weight for each animal was calculated as the sum of each single metastasis weight, each of them considered as a rotation solid developed around the above mentioned axes and calculated according to the formula (π/6)·a^2·b. The experimental data obtained were then processed by appropriate statistical tests. […]

[1] = system: murine TS/A adenocarcinoma cells; test: In vitro cytotoxicity, SRB test (protein synthesis); format: cell-based
Procedure: (§1) In vitro cytotoxicity of complexes of the present invention on murine TS/A adenocarcinoma cells.
(§2) 4×10^3 murine TS/A adenocarcinoma cells resuspended in 200 μl RPMI-1640 medium supplemented with 10% FCS (fetal calf serum), 2 mM glutamine and 50 μg/ml gentamicin sulphate, were seeded in a 96-wells plate. After 24 hours incubation at 37° C., in 5% CO2, the complexes as described in example 4 (A), in example 7 (B), in example 8 (C) and in example 10 (D), each solubilised in RPMI-1640 medium supplemented with 5% FCS, 2 mM glutamine and 50 μg/ml gentamicin sulphate, were added to the cells, each at a final concentration of 10^−4, 10^−5 and 10^−6 M. Cell viability tests were performed after 24, 48 and 72 hours of exposure to the compounds by assessing both the effect on protein synthesis and on mitochondrial activity by means of colorimetric assays, respectively the solphorodamine B test (SRB) and the MTT analysis. Each value (optical density) is the average percentage ±S.E. versus the untreated controls.
(§3) Values such as *p<0.05, **p<0.01 indicate average values statistically different from the controls. Analysis of Variance and Dunnet test were used in the comparison analysis.
(§4) The results are reported in Table 3, wherein both the effect on protein synthesis (SRB) and the mitochondrial activity (MTT) are reported for each complexes tested at different dosages after different exposure time.

[2] = system: murine TS/A adenocarcinoma cells; test: In vitro cytotoxicity, MTT analysis (mitochondrial activity); format: cell-based
Procedure: as §1, §2, §3, §4

[3] = LD0.05 determination, intraperitoneal treatment for 6 consecutive days (Lichtfield and Wilcoxon); format: in vivo; settings: observation time 10 days since last dose
Procedure: The dosages corresponding to the LD0.05, calculated separately in animals of the same strain and gender and having the same body weight, was administered intraperitoneally for 6 consecutive days, according to the method of Lichtfield and Wilcoxon, and with an observation time of 10 days since last dose.

[4] = 7.5 mg/kg/die i.p. day 11-16, pre-surgical
[5] = 15 mg/kg/die i.p. day 11-16, pre-surgical
[6] = 30 mg/kg/die i.p. day 11-16, pre-surgical

Compound	Lung metastases Number % T/C (MCa mammary carcinoma; [5]) [%]	Lung metastases weight % T/C (MCa mammary carcinoma; [5]) [%]	Lung metastases Number mean (MCa mammary carcinoma; [5])	Lung metastases weight (mg) mean (MCa mammary carcinoma; [5]) [mg]	Body weight % var (MCa mammary carcinoma; 15 mg/kg/die i.p. day 11-16) [%]	Selectivity of action on lung metastases versus primary tumour (MCa mammary carcinoma)	Number of lung metastases (in words) (MCa mammary carcinoma)	Weight of lung metastases (in words) (MCa mammary carcinoma)	SRB optical density, average percentage ±S.E. versus untreated controls ([1]; 10^−4 M, exposure time 24 h)	SRB optical density, average percentage ±S.E. versus untreated controls ([1]; 10^−4 M, exposure time 48 h)	SRB optical density, average percentage ±S.E. versus untreated controls ([1]; 10^−4 M, exposure time 72 h)	SRB optical density, average percentage ±S.E. versus untreated controls ([1]; 10^−5 M, exposure time 24 h) [%]	SRB optical density, average percentage ±S.E. versus untreated controls ([1]; 10^−5 M, exposure time 48 h) [%]	SRB optical density, average percentage ±S.E. versus untreated controls ([1]; 10^−5 M, exposure time 72 h) [%]	SRB optical density, average percentage ±S.E. versus untreated controls ([1]; 10^−6 M, exposure time 24 h) [%]	SRB optical density, average percentage ±S.E. versus untreated controls ([1]; 10^−6 M, exposure time 48 h) [%]	SRB optical density, average percentage ±S.E. versus untreated controls ([1]; 10^−6 M, exposure time 72 h) [%]	MTT optical density, average percentage ±S.E. versus untreated controls ([2]; 10^−4 M, exposure time 24 h)	MTT optical density, average percentage ±S.E. versus untreated controls ([2]; 10^−4 M, exposure time 48 h)	MTT optical density, average percentage ±S.E. versus untreated controls ([2]; 10^−4 M, exposure time 72 h)	also measured
C[SH](C)(=O)[Ru-]([Cl])([Cl])([Cl])([Cl])[n+]1cc[n+]([Ru-]([Cl])([Cl])([Cl])([Cl])[SH](C)(C)=O)cc1.[Na+].[Na+] [Example 4, [Na]2[trans-RuCl4(Me2SO)]2(μ-pyz)]	4	0	2.0	0.2	−3.3	act selectively on lung metastases	marked reduction	even more marked reduction	32 ± 1** %	51 ± 2** %	66 ± 2** %	99 ± 5	95 ± 1	95 ± 2	112 ± 3	102 ± 5	107 ± 2	34 ± 1** %	50 ± 7** %	59 ± 1** %	Lung metastases Number % T/C (MCa mammary carcinoma; [4]): 27%; Lung metastases weight % T/C (MCa mammary carcinoma; [4]): 10%; Lung metastases Number mean (MCa mammary carcinoma; [4]): 14.0; Lung metastases weight (mg) mean (MCa mammary carcinoma; [4]): 8 mg; Body weight % var (MCa mammary carcinoma; 7.5 mg/kg/die i.p. day 11-16): −4.6%; Antiproliferative activity (in words) ([1]; SRB and MTT, up to 72 h): scarce and reversible; MTT optical density, average percentage ±S.E. versus untreated controls ([2]; 10^−5 M, exposure time 24 h): 100 ± 10%; MTT optical density, average percentage ±S.E. versus untreated controls ([2]; 10^−5 M, exposure time 48 h): 108 ± 12%; MTT optical density, average percentage ±S.E. versus untreated controls ([2]; 10^−5 M, exposure time 72 h): 93 ± 4%; MTT optical density, average percentage ±S.E. versus untreated controls ([2]; 10^−6 M, exposure time 24 h): 105 ± 10%; MTT optical density, average percentage ±S.E. versus untreated controls ([2]; 10^−6 M, exposure time 48 h): 101 ± 9%; MTT optical density, average percentage ±S.E. versus untreated controls ([2]; 10^−6 M, exposure time 72 h): 89 ± 2%; LD0.05 [3]: 28 mg/kg of body weight/day
C[SH](C)(=O)[Ru-]([Cl])([Cl])([Cl])([Cl])[n+]1ccc[n+]([Ru-]([Cl])([Cl])([Cl])([Cl])[SH](C)(C)=O)c1.[Na+].[Na+] [Example 7, [Na]2[trans-RuCl4(Me2SO)]2(μ-pym)]	10	2	5.0	1.7	−1.4	act selectively on lung metastases	marked reduction	even more marked reduction	58 ± 2** %	73 ± 8* %	61 ± 2** %	95 ± 9	108 ± 5	100 ± 1	101 ± 9	100 ± 3	95 ± 7	90 ± 10%	71 ± 12* %	60 ± 1** %	Lung metastases Number % T/C (MCa mammary carcinoma; [6]): 6%; Lung metastases weight % T/C (MCa mammary carcinoma; [6]): 1%; Lung metastases Number mean (MCa mammary carcinoma; [6]): 3.0; Lung metastases weight (mg) mean (MCa mammary carcinoma; [6]): 0.8 mg; Body weight % var (MCa mammary carcinoma; 30 mg/kg/die i.p. day 11-16): −2.7%; MTT optical density, average percentage ±S.E. versus untreated controls ([2]; 10^−5 M, exposure time 24 h): 117 ± 1%; MTT optical density, average percentage ±S.E. versus untreated controls ([2]; 10^−5 M, exposure time 48 h): 104 ± 9%; MTT optical density, average percentage ±S.E. versus untreated controls ([2]; 10^−5 M, exposure time 72 h): 93 ± 9%; MTT optical density, average percentage ±S.E. versus untreated controls ([2]; 10^−6 M, exposure time 24 h): 110 ± 2%; MTT optical density, average percentage ±S.E. versus untreated controls ([2]; 10^−6 M, exposure time 48 h): 110 ± 13%; MTT optical density, average percentage ±S.E. versus untreated controls ([2]; 10^−6 M, exposure time 72 h): 104 ± 8%; LD0.05 [3]: 28 mg/kg of body weight/day

— US6921824B1, “Ruthenium dimeric complexes suitable as antimetastatic and antineoplastic agents” (priority 1999, dated 2005)
